What all share (assay type): cell-based
The subject of experiment [1] is MIA-PACA2 pancreatic cancer cell lines. As to the kind of experiment: Cell proliferation assay (CellTiter 96 AQueous One). The settings on record: Homo sapiens, MIA PaCa-2; for inhibition at 30 µM: MIA-PACA2. The method, then:
Cell lines: Tumor-derived pancreatic cancer cell lines MIA-PACA2 were purchased from ATCC and grown in complete DMEM-High Glucose medium supplemented with penicillin (100 U/mL), streptomycin (100 μg/mL), and 10% heat-inactivated FBS at 37° C. in a humidified incubator with 5% CO2.
Method: Cells are plated at 1000 cells/well density in 96-wells plate, starved ON, and the next day tested small molecules are added to the cells in the final concentration of 30 μM with 0.3% DMSO 3 hours prior to 10% FBS addition. After serum addition cells are incubated for 6 days at 37° C. in a humidified incubator with 5% CO2. For IC50 value determination, serial dilutions of compounds were added to cells under the same conditions.
Assay: At the end of the incubation period, cell cultures are tested using the CellTiter 96® AQueous One Solution Cell Proliferation Assay kit (Promega Corporation, Madison, Wis.) according to the manufacturer specifications. Briefly, assay is performed by adding 20 μl of the CellTiter 96 Aqueous One Solution Reagent directly to culture wells, followed by for 1-4 hours incubation at 37° C. in a humidified incubator with 5% CO2. At the end of incubation time, absorbance at 492 nm is recorded with the 96-well plate reader Eppendorf AF2200, and degree of small molecule-dependent proliferation inhibition is calculated from raw data assuming No Serum cells value as 100%.

Experiment [2] relates to TNFα production in RAW 264.7 macrophage cell line. As to the kind of experiment: Mouse TNF alpha quantification assay (LPS-stimulated macrophages, ELISA). The conditions noted are these: RAW264.7, RAW 264.7 murine leukemia virus transformed macrophage cell lines, LPS stimulation, read-out: TNF-α % Inhibition at 30 μM. In general terms: In an ELISA, binding on a coated surface is turned into a signal by an enzyme label.

Experiment [3] concerns IL6 production in RAW 264.7 macrophage cell line. The experiment can be described thus: Mouse IL6 quantification assay (LPS-stimulated macrophages, ELISA). The settings on record: RAW264.7, RAW 264.7 murine leukemia virus transformed macrophage cell lines, LPS stimulation, read-out: IL-6 % Inhibition at 30 μM.

The record followed here is patent US10940139B2, “Compounds that interact with the Ras superfamily for the treatment of cancers, inflammatory diseases, rasopathies, and fibrotic disease” (Shy Therapeutics LLC, priority 2017, dated 2021).

As usually defined, the inhibition is the relative decrease from the control value, in per cent. On to `N#Cc1ccc(CC(=O)Nc2ccnc(-c3ccccn3)n2)cc1` [drawing 1586], for which the inhibition at 30 µM in experiment [1] was in the range of 76 to 100%.

In experiment [1], `O=C(Nc1nnc(-c2ccccn2)[nH]1)c1ccn(-c2cccc(F)c2)n1` [drawing 1397] yielded an inhibition at 30 µM of 76 to 100%.

Consider `Oc1nc(-c2ccccn2)nc2c(-c3cncc(F)c3)csc12` [drawing 1786], for which the inhibition at 30 µM in experiment [1] lay in the range of 76 to 100%.

In turn, `Cc1cc(OC(F)F)ccc1-c1csc2c(O)nc(-c3ccccn3)nc12` [drawing 1754] had an inhibition at 30 µM in experiment [1] of 76 to 100%.

Turning to `O=C(CCc1nn[nH]n1)Nc1nc(-c2ccccn2)nc2sccc12` [drawing 1766], the inhibition at 30 µM in experiment [1] fell in the range of 51 to 75%.

In experiment [1], `COc1ccc(CCNC(=O)c2csc3nc(-c4ccccn4)nc(N4CCOCC4)c23)cn1` [drawing 1639] had an inhibition at 30 µM of 51 to 75%.

For the molecule `O=C1CN(c2nc(-c3ccccn3)nc3scc(-c4ccccc4)c23)CCN1CCO` [drawing 1594], the inhibition at 30 µM in experiment [1] was 51 to 75%.

The molecule `Oc1nc(-c2ccccn2)nc2c(-c3ccc(OC4CCOC4)cc3)csc12` (stereo not shown) [drawing 1738] showed an inhibition at 30 µM in experiment [1] of 76 to 100%.

In experiment [1], `Cn1nnc2ccc(-c3csc4c(O)nc(-c5ccccn5)nc34)cc21` [drawing 1737] came in with an inhibition at 30 µM of 76 to 100%.

Take `COc1ccc(F)cc1-c1csc2c(O)nc(-c3ccccn3)nc12` [drawing 1750]: the inhibition at 30 µM in experiment [1] fell in the range of 76 to 100%.

As for `O=C(NCCc1cccnc1)c1csc2nc(-c3ccccn3)nc(N3CCOCC3)c12` [drawing 1638], the inhibition at 30 µM in experiment [1] lay within 76 to 100%.

`COc1cc(C)c(-c2csc3c(O)nc(-c4ccccn4)nc23)cc1C` [drawing 1745] came in with an inhibition at 30 µM in experiment [1] of 76 to 100%.

In experiment [1], `O=C(c1csc2c(O)nc(-c3ccccn3)nc12)N1CCOC(c2ccccc2)C1` (stereo not shown) [drawing 1659] showed an inhibition at 30 µM of 76 to 100%.

The molecule `O=C(c1csc2c(O)nc(-c3ccccn3)nc12)N1CCOC(c2cccc(Cl)c2)C1` (stereo not shown) [drawing 1663] registered an inhibition at 30 µM in experiment [1] of 76 to 100%.

As for `CC(c1ccccc1)N1CCN(C(=O)c2csc3c(O)nc(-c4ccccn4)nc23)CC1` (stereo not shown) [drawing 1697], in experiment [1], the inhibition at 30 µM was 76 to 100%.

On to `O=C(Cc1ccc(F)cc1)Nc1nnc(-c2ccccn2)[nH]1` [drawing 1427], for which, in experiment [1], the inhibition at 30 µM fell in the range of 51 to 75%.

`COC(=O)c1cc(NCc2nc(CC(C)C)no2)ccc1Cl` [drawing 1518] displayed an inhibition at 30 µM in experiment [1] of 76 to 100%.

Take `c1ccc(-c2csc3nc(-c4ccccn4)nc(N4CCN(CC5CCCO5)CC4)c23)cc1` (stereo not shown) [drawing 1603]: the inhibition at 30 µM in experiment [1] is 76 to 100%.

The term IC50 denotes the concentration that gives 50% inhibition. Regarding `COc1ccnc(-c2nc(O)c3c(Br)csc3n2)c1` [drawing 1637], in experiment [1] (MIA-PACA2, same assay as the % inhibition (standard conditions)), the IC50 lay within 100 to 500 nM. Besides, the inhibition at 30 µM in experiment [1] fell in the range of 76 to 100%.

As to `O=C(NCCc1ccncc1)c1csc2nc(-c3ccccn3)nc(N3CCOCC3)c12` [drawing 1672], the inhibition at 30 µM in experiment [1] is 76 to 100%.

The molecule `Cc1sc2[nH]c(-c3ccccn3)nc(=O)c2c1-c1ccccc1` [drawing 1493] registered an inhibition at 30 µM in experiment [1] of 76 to 100%.

For the molecule `O=C(Nc1nnc(-c2ccccn2)[nH]1)c1ccn(-c2cccc(Cl)c2)n1` [drawing 1468], the inhibition at 30 µM in experiment [1] lay in the range of 76 to 100%.

As for `O=C(NCCc1cnc(O)nc1)c1csc2nc(-c3ccccn3)nc(N3CCS(=O)(=O)CC3)c12` [drawing 1730], the inhibition at 30 µM in experiment [1] was 1 to 25%.

In the case of `COc1ccc(CCNC(=O)c2csc3nc(-c4ccccn4)nc(N4CCS(=O)(=O)CC4)c23)cn1` [drawing 1729], in experiment [1], the inhibition at 30 µM lay in the range of 51 to 75%.

In turn, `Cc1ccc(OC2CCCC2)c(-c2csc3c(O)nc(-c4ccccn4)nc23)c1` [drawing 1720] had an inhibition at 30 µM in experiment [1] of 76 to 100%.

In turn, `Cc1ccccc1C1CN(C(=O)c2csc3c(O)nc(-c4ccccn4)nc23)CCN1` (stereo not shown) [drawing 1668] gave an inhibition at 30 µM in experiment [1] of 76 to 100%.

With `O=C(c1csc2c(O)nc(-c3ccccn3)nc12)N1CCC(c2cccnc2)CC1` [drawing 1571], the inhibition at 30 µM in experiment [1] was 76 to 100%.

Regarding `CCc1cc(NNC(=O)c2ccc(C#N)cc2)nc(-c2ccccn2)n1` [drawing 1511], in experiment [1], the inhibition at 30 µM fell in the range of 76 to 100%.

With `Nc1nc(O)c2scc(C(=O)NCCc3cccnc3)c2n1` [drawing 1560], the inhibition at 30 µM in experiment [1] fell in the range of 1 to 25%.

The molecule `COc1cc(-c2csc3c(O)nc(-c4ccccn4)nc23)cnc1C(F)(F)F` [drawing 1760] registered an inhibition at 30 µM in experiment [1] of 76 to 100%.

As to `COc1ccccc1C1CN(C(=O)c2csc3c(O)nc(-c4ccccn4)nc23)CCO1` (stereo not shown) [drawing 1660], the inhibition at 30 µM in experiment [1] lay within 76 to 100%.

The molecule `Cc1ccc(O)c(CN(C)Cc2nccn2Cc2ccccc2)n1` [drawing 1521] yielded an inhibition at 30 µM in experiment [1] of 76 to 100%.

Molecule `Oc1nc(-c2ccccn2)nc2c(-c3ccc(C4CCC4)cc3)csc12` [drawing 1741] yielded an inhibition at 30 µM in experiment [1] of 76 to 100%.

In turn, `Oc1nc(-c2ccccn2)nc2c(-c3ccccc3C(F)F)csc12` [drawing 1759] returned an inhibition at 30 µM in experiment [1] of 76 to 100%.

The molecule `COc1cccc(C2CN(C(=O)c3csc4c(O)nc(-c5ccccn5)nc34)CCN2)c1` (stereo not shown) [drawing 1666] had an inhibition at 30 µM in experiment [1] of 76 to 100%.

`COc1cnc(-c2cn(C)cn2)nc1O` [drawing 2339]: the figures for the inhibition at 30 µM in experiment [2] and in experiment [3] were 0% and 26 to 50%, respectively.

Take `Oc1nc(-c2ccccn2)nc2sc3c(c12)CCNC3` [drawing 2244]: the inhibition at 30 µM in experiment [2] and in experiment [3] was 26 to 50% each time.

Turning to `Cn1ccnc1-c1nc(O)c2scc(-c3ccccc3Cl)c2n1` [drawing 2442], the inhibition at 30 µM in experiment [2] lay in the range of 1 to 25%; in experiment [3] it was 51 to 75%.

Take `Cn1ccnc1-c1nc(O)c2scc(-c3ccccc3)c2n1` [drawing 2441]: the inhibition at 30 µM lay within 51 to 75% in experiment [2] and 76 to 100% in experiment [3].

Take `COCCNc1nc(-c2nccn2C)nc2sc(-c3ccccc3Cl)c(-c3ccccc3)c12` [drawing 2408]: the inhibition at 30 µM in experiment [2] and in experiment [3] was 1 to 25% in each case.

In the case of `O=C(Cn1c(=O)[nH]c2ccccc21)Nc1nnc(-c2ccccn2)[nH]1` [drawing 1987], the inhibition at 30 µM in experiment [2] and in experiment [3] was 1 to 25% in each case.

As for `COCCNc1nc(-c2nccn2C)nc2sc(-c3cccc(OC)c3)c(-c3ccccc3)c12` [drawing 2413], the inhibition at 30 µM in experiment [2] and in experiment [3] was 76 to 100% in each case.

In the case of `COCCNc1nc(-c2cn(C)cn2)nc2sc(C)c(-c3ccccc3)c12` [drawing 2412], the inhibition at 30 µM fell in the range of 26 to 50% in experiment [2] and 1 to 25% in experiment [3].

As for `COC(=O)c1nc(-c2ccccn2)nc(O)c1O` [drawing 2374], the inhibition at 30 µM in experiment [2] and in experiment [3] was 0% each time.

In the case of `CC(C)OCCNc1nc(-c2nccn2C)nc2sc(-c3ccccc3)c(-c3ccccc3)c12` [drawing 2394], the inhibition at 30 µM in experiment [2] and in experiment [3] was 1 to 25% in each case.

On to `O=C(Nc1nnc(-c2ccccn2)[nH]1)c1ccc(=O)n(CCOc2ccccc2)n1` [drawing 1999], for which the inhibition at 30 µM in experiment [2] was 0%; in experiment [3] it was 26 to 50%.

As to `OCCNc1nc(-c2ccccn2)nc2scc(-c3ccccc3)c12` [drawing 2038], the values for the inhibition at 30 µM in experiment [2] and in experiment [3] were 0% and 1 to 25%, respectively.

For the molecule `Oc1nc(-c2ccccn2)nc2c(Br)c(-c3ccccc3)sc12` [drawing 2380], the inhibition at 30 µM in experiment [2] was 0%; in experiment [3], 1 to 25%.

In the case of `O=C(c1csc2c(O)nc(-c3ccccn3)nc12)N1CCN(Cc2ccccc2)CC1` [drawing 2187], the inhibition at 30 µM is 0% in experiment [2] and 76 to 100% in experiment [3].

Turning to `Oc1nc(-c2ccccn2)nc2cc(-c3ccncc3)sc12` [drawing 2388], the inhibition at 30 µM in experiment [2] fell in the range of 1 to 25%; in experiment [3], 26 to 50%.

For `Oc1nc(-c2ccccn2)nc2c(CC3CCNC3)csc12` (stereo not shown) [drawing 2353], the inhibition at 30 µM in experiment [2] lay in the range of 1 to 25%; in experiment [3], 51 to 75%.

Turning to `O=S(=O)(c1ccccc1)N1CCCc2c(O)nc(-c3ccccn3)nc21` [drawing 2084], the inhibition at 30 µM in experiment [2] was 1 to 25%; in experiment [3], 0%.

With `COc1cnc(-c2nccn2C)nc1O` [drawing 2340], the inhibition at 30 µM in experiment [2] was 0%; in experiment [3] it was 1 to 25%.

Consider `Cn1cnc(-c2nc(O)c3sc(-c4ccncc4)c(-c4ccccc4)c3n2)c1` [drawing 2376], for which the inhibition at 30 µM was 0% in experiment [2] and 1 to 25% in experiment [3].

Consider `COCCCCNC(=O)c1csc2nc(-c3ccccn3)nc(N3CCOCC3)c12` [drawing 2205], for which the inhibition at 30 µM in experiment [2] and in experiment [3] was 1 to 25% each time.

With `CN(CC(=O)Nc1nnc(-c2ccccn2)[nH]1)S(=O)(=O)c1ccccc1` [drawing 2001], the inhibition at 30 µM in experiment [2] is 0%; in experiment [3], 1 to 25%.

`COc1cccc(C2CN(C(=O)c3csc4c(O)nc(-c5ccccn5)nc34)CCN2)c1` (stereo not shown) [drawing 2197]: the inhibition at 30 µM in experiment [2] is 1 to 25%; in experiment [3], 76 to 100%.

In the case of `CS(=O)(=O)N1CCCc2cc(C(=O)N3CCCc4c(O)nc(-c5ccccn5)nc43)ccc21` [drawing 2077], the figures for the inhibition at 30 µM in experiment [2] and in experiment [3] were 1 to 25% and 76 to 100%, respectively.
